Measured values as given in patent US9260468B1, “2,3′-anhydro-2′-deoxy-5-fluorouridine derivatives with cytotoxic activity, a manufacturing process and application” (ADAM MICKIEWICZ UNIVERSITY, priority 2014, dated 2016).
pIC50: −log10 of the molar value. “And” between values parts separate entries of the source, which are not always exact repeats. Equal values may be shown once. Read-outs that look alike come from different tables or passages of the source.

Key:
[1] = Cytotoxicity test with sulphorhodamine B, normal fibroblasts; assay type: cell-based; conditions: human, normal human dermal fibroblasts (HDF), normal cells, 72 hours incubation, read-out: Cytotoxic activity, IC50, Fibroblasts (HDF)
Experimental: (§1) Cytotoxic activity tests were performed using the following cancer cell lines: MCF-7 (breast cancer), HeLa (cervical cancer) A549 (lung cancer) and KB (nasopharynx cancer) and normal cells (human dermal fibroblasts, HDF) obtained from ECACC (European Collection of Cell Cultures).
(§2) Cytotoxicity tests were carried out using a standard procedure with sulphorhodamine B. They involved incubation of the cancer cell lines in the logarithmic growth phase for 72 hours with the compound tested and, subsequently, spectrophotometric determination of the degree of cell growth inhibition using adsorption of a dye (sulphorhodamine B) which binds cellular proteins. The determination was carried out according to a procedure reported in: Vichai, V., Kirtikara, K. Nature Protocols, 2006, 1, 1112.
(§3) Cells of the cell line tested in the logarithmic growth phase were seeded onto 24-well plates in a quantity of 20.000 cells/2 mL of the growth medium per well and, subsequently, incubated in an incubator at 37° C., in the 5% CO2 atmosphere for 24 hours.
Solutions of the test compounds were prepared in DMSO in the following concentrations: 0.05; 0.1; 0.5; 1; 5; 10; 50; 100; 500 μM. […]

HeLa (cervical cancer) = test: Cytotoxicity test with sulphorhodamine B, HeLa line; assay type: cell-based; conditions: for IC50: Homo sapiens, HeLa; for SI, HeLa: SI = IC50 normal cell line (fibroblasts) / IC50 HeLa
Experimental: as §1, §2, §3
(§4) Solutions of the test compounds were prepared in DMSO in the following concentrations: 0.05; 0.1; 0.5; 1; 5; 10; 50; 100; 500 μM.
(§5) The cells of the lines tested were treated with the solutions of the test compounds in a laminar-flow chamber which ensured sterile working conditions according to the following procedure: the first three wells were used as a control: they contained 20 μL of DMSO only; successive solutions of the test compound were added to subsequent wells (20 μL), starting with the lowest concentration (three wells for each concentration level). Subsequently, the plates were placed in an incubator at 37° C. for 72 hours. After the end of incubation, the adhered cells were fixed by adding 500 μL of cold (4° C.) 50% trichloroacetic acid (TCA) and incubated at 4° C. for 1 hour. Subsequently, each well was rinsed with sterile water and dried. The rinsing was repeated five times. The fixed cells were stained for 30 minutes by adding 500 μL of 0.4% dye solution (sulphorhodamine B) dissolved in 1% acetic acid. Any unbound dye was removed by decanting it from the plate, and the cells were washed 4 times with 1% acetic acid. Subsequently, the plates were dried in air for approx. 5 minutes. Bounded dye was dissolved by adding 1500 μL of 10 mM Tris-base buffer (trishydroxymethylaminomethane) to each well and shaken using an orbital shaker for 5 minutes. Subsequently, 200 μL of solution from each well was transferred to each of two wells on a new 96-well plate and absorption of the solutions was determined spectrophotometrically at a wavelength of 490-530 nm using a plate reader.
(§6) Cytotoxicity tests for the other compounds and cell lines were performed following an identical procedure.
(§7) The MCF-7 line was grown in Dulbecco's Modified Eagle's Medium (DME) from Sigma (cat. no. D5796), while the HeLa, A549 and KB lines were grown in RPMI-1640 Medium from Sigma (cat. no. R8758).
(§8) IC50 values, being concentration of a compound needed to obtain 50% inhibition of cell growth, were determined for all the derivatives tested.

KB (nasopharynx cancer) = test: Cytotoxicity test with sulphorhodamine B, KB line; assay type: cell-based; conditions: for SI, KB: SI = IC50 normal cell line (fibroblasts) / IC50 KB
Experimental: as §1, §2, §3, §4, §5, §6, §7, §8

MCF-7 (breast cancer) = test: Cytotoxicity test with sulphorhodamine B, MCF-7 line; assay type: cell-based; conditions: for IC50: Homo sapiens; for SI, MCF-7: SI = IC50 normal cell line (fibroblasts) / IC50 MCF-7
Experimental: as §1, §2, §3, §4, §5, §6, §7, §8

A549 (lung cancer) = test: Cytotoxicity test with sulphorhodamine B, A549 line; assay type: cell-based; conditions: for IC50: Homo sapiens
Experimental: as §1, §2, §3, §4, §5, §6, §7, §8

HBV = conditions: literature (Srivastav et al. 2010); cited from earlier work
Huh-7 line = conditions: literature (Srivastav et al. 2010); cited from earlier work
[2] = 72 h, read-out: Cytotoxic activity, IC50, HeLa (cervical cancer)
[3] = read-out: Cytotoxic activity class, HeLa (cervical cancer)
[4] = 72 h, read-out: Cytotoxic activity, IC50, KB (nasopharynx cancer)
[5] = read-out: Cytotoxic activity class, KB (nasopharynx cancer)
[6] = MCF7, 72 h, read-out: Cytotoxic activity, IC50, MCF-7 (breast cancer)
[7] = MCF7, read-out: Cytotoxic activity class, MCF-7 (breast cancer)
[8] = A549, class A/MA/NA by IC50 in μg/mL, read-out: Cytotoxic activity class, A549 (lung cancer)
[9] = class A/MA/NA by IC50 in μg/mL, read-out: Cytotoxic activity class, HeLa (cervical cancer)
[10] = class A/MA/NA by IC50 in μg/mL, read-out: Cytotoxic activity class, KB (nasopharynx cancer)
[11] = MCF7, class A/MA/NA by IC50 in μg/mL, read-out: Cytotoxic activity class, MCF-7 (breast cancer)
[12] = 72 hours incubation, sulphorhodamine B, average of three determinations

| SMILES | IC50 at 72 h [1] | IC50 (HeLa (cervical cancer); [2]) | IC50 (HeLa (cervical cancer); [3]) [µg/mL] | SI, HeLa (HeLa (cervical cancer)) | IC50 (KB (nasopharynx cancer); [4]) | SI, KB (KB (nasopharynx cancer)) | IC50 (KB (nasopharynx cancer); [5]) [µg/mL] | IC50 (MCF-7 (breast cancer); [6]) | IC50 (MCF-7 (breast cancer); [7]) [µg/mL] | SI, MCF-7 (MCF-7 (breast cancer)) | IC50 (A549 (lung cancer); [8]) [µg/mL] | IC50 (HeLa (cervical cancer); [9]) [µg/mL] | IC50 (KB (nasopharynx cancer); [10]) [µg/mL] | IC50 (MCF-7 (breast cancer); [11]) [µg/mL] | further results |
| --- | --- | --- | --- | --- | --- | --- | --- | --- | --- | --- | --- | --- | --- | --- | --- |
| O=c1nc2n(cc1F)C1CC(O2)C(COP(=O)(NCCF)Oc2ccc(Cl)cc2)O1 (centres unmarked) [MFEAdFU] | 43.1 µg/mL and 92.9 µM | 16 µg/mL and 34.5 µM | 4 to 30 | 2.7 | 12.2 µg/mL and 26.3 µM | 3.5 | 4 to 30 | 11.8 µg/mL and 25.4 µM | 4 to 30 | 3.7 | – | – | – | – | – |
| O=c1[nH]cc(F)c(=O)[nH]1 [5-fluorouracil, reference compound] | – | – | – | – | – | – | – | – | – | – | < 4 | < 4 | < 4 | < 4 | – |
| O=c1[nH]c(=O)n([C@H]2C[C@H](O)[C@@H](CO)O2)cc1F [5-fluoro-2′-deoxyuridine, reference compound] | – | – | – | – | – | – | – | – | – | – | < 4 | < 4 | < 4 | < 4 | – |
| O=c1nc2n(cc1F)C1CC(O2)C(COP(=O)(NCC(F)(F)F)Oc2ccc(Cl)cc2)O1 (centres unmarked) [FEAdFU, 2,3′-anhydro-2′-deoxy-5-fluorouridine 5′-[N-(2,2,2-trifluoroethyl)-O-(4-chlorophenyl)]phosphate] | 6 µg/mL and 12 µM | 360 nM and 0.18 µg/mL | < 4 | 33 and 33.3 | 400 nM and 0.2 µg/mL | 30 | < 4 | 240 nM and 0.12 µg/mL | < 4 | 50 | – | – | – | – | IC50 (A549 (lung cancer); A549, 72 h, read-out: Cytotoxic activity, IC50, A549 (lung cancer)): 400 nM and 0.2 µg/mL; IC50 (A549 (lung cancer); A549, read-out: Cytotoxic activity class, A549 (lung cancer)): < 4 µg/mL; SI, A549 (A549 (lung cancer); SI = IC50 normal cell line (fibroblasts) / IC50 A549): 30; fold higher cytotoxicity than 5FU, A549 (A549 (lung cancer); versus 5FU): more than 53 fold; fold higher cytotoxicity than 5FdU, A549 (A549 (lung cancer); versus 5FdU): more than 33 fold; fold higher cytotoxicity than 5FU, HeLa (HeLa (cervical cancer); versus 5FU): more than 58 fold; fold higher cytotoxicity than 5FdU, HeLa (HeLa (cervical cancer); versus 5FdU): more than 36 fold; fold higher cytotoxicity than AdFU, HeLa (HeLa (cervical cancer); versus AdFU): more than 133 fold; fold higher cytotoxicity than 5FU, KB (KB (nasopharynx cancer); versus 5FU): more than 55 fold; fold higher cytotoxicity than 5FdU, KB (KB (nasopharynx cancer); versus 5FdU): more than 34 fold; fold higher cytotoxicity than AdFU, KB (KB (nasopharynx cancer); versus AdFU): 120 fold; fold higher activity than 5FU, MCF-7 (MCF-7 (breast cancer); versus 5FU): more than 75 fold; fold higher activity than 5FdU, MCF-7 (MCF-7 (breast cancer); versus 5FdU): more than 47 fold; fold higher activity than AdFU, MCF-7 (MCF-7 (breast cancer); versus AdFU): 67 fold |
| O=c1nc2n(cc1F)[C@H]1C[C@@H](O2)[C@@H](CO)O1 [2,3′-anhydro-2′-deoxy-5-fluorouridine] | – | – | – | – | – | – | – | – | – | – | – | – | 4 to 30 | – | Cytotoxic activity, IC50, HeLa (cervical cancer) (HeLa (cervical cancer); [12]): 11.0 µg/mL; pIC50 (HeLa (cervical cancer); 72 hours incubation, sulphorhodamine B, read-out: Cytotoxic activity, IC50, HeLa (cervical cancer)): 4.32; Cytotoxic activity class, HeLa (cervical cancer) (HeLa (cervical cancer); class A/MA/NA by IC50 in μg/mL): MA (IC50 range of 4-30 μg/mL are considered medium active); antiviral activity against HBV (HBV): weak antiviral activity; cytotoxic activity against the Huh-7 line, IC50 (Huh-7 line): > 200 µg/mL; Cytotoxic activity, IC50, KB (nasopharynx cancer) (KB (nasopharynx cancer); [12]): 11.0 µg/mL; pIC50 (KB (nasopharynx cancer); 72 hours incubation, sulphorhodamine B, read-out: Cytotoxic activity, IC50, KB (nasopharynx cancer)): 4.32; Cytotoxic activity, IC50, MCF-7 (breast cancer) (MCF-7 (breast cancer); [12]): 3.7 µg/mL; pIC50 (MCF-7 (breast cancer); 72 hours incubation, sulphorhodamine B, read-out: Cytotoxic activity, IC50, MCF-7 (breast cancer)): 4.79; Cytotoxic activity class, MCF-7 (breast cancer) (MCF-7 (breast cancer); class A/MA/NA by IC50 in μg/mL): A (IC50<4 μg/mL are generally assumed as active) |
